{
  "source": "paper PMC4919643",
  "about": "“Intestinally-targeted TGR5 agonists equipped with quaternary ammonium have an improved hypoglycemic effect and reduced gallbladder filling effect” (Scientific Reports, 2016)",
  "key": {"[1]": {"assay": "Solubility in water determined by LC-MS/MS", "assay_type": "physicochemical"}, "[2]": {"assay": "Pharmacokinetics assay of 26a in ob/ob mice (plasma and intestinal tissue)", "assay_type": "in vivo, mouse", "procedure": "The blood and intestinal tissue samples were collected before dosing or 2, 4, 6, 10, 16, and 24 h after dosing. Density of intestinal tissue was taken as 1 g/ml. Error bar indicates SEM. […]\nPharmacokinetics assay of 26a in ob/ob mice. […]\nadministered to 12 h-fasted ob/ob mice (n = 3 per time point). Blood and intestinal tissue samples were collected before dosing or 2 h, 4 h, 6 h, 10 h 16 h, 24 h after dosing. Blood samples were centrifuged at 11000 rpm for 5 min to isolate the plasma. 25 μL of the sample was mixed with 75 μL MeOH. After centrifugation at 11000 rpm for 5 mins, the supernatant was analyzed by LC-MS/MS.\nThe tissues were ground and homogenated with 0.9% NaCl solution (1:4, w/v), and then the homogenates were centrifuged at 12,000 rpm for 10 min at 4 °C. The supernatant was collected, and 100 μL aliquot of supernatant was spiked with 300 μL methanol, and then treated as the same fashion as plasma sample. […]"}},
  "note": "Read-outs that look alike come from different tables or passages of the source.",
  "data": [
    {"smiles": "CN(CC[N+](C)(C)C)C(=O)CCc1cc(Cl)c(Oc2ccsc2C(=O)N2CCN(C3CC3)c3ccccc32)cc1Cl", "note": "[Compound 26a]", "values": [
      {"measurement": "solubility", "setting": "[1]", "value": 1800, "unit": "µg/mL"},
      {"measurement": "time of Cmax in intestinal tissue", "setting": "[2]; 100 mg/kg p.o. single dose", "value": 2, "unit": "h"},
      {"measurement": "time of Cmax in plasma", "setting": "[2]; 100 mg/kg p.o. single dose", "value": 2, "unit": "h"},
      {"measurement": "Cmax", "setting": "[2]; male, mouse, colon, po, 100 mg/kg p.o., at 2 h, tissue density taken as 1 g/ml, read-out: Cmax in colon tissue", "value": 27, "unit": "µg/mL"},
      {"measurement": "Cmax", "setting": "[2]; male, mouse, duodenum, po, 100 mg/kg p.o., at 2 h, tissue density taken as 1 g/ml, read-out: Cmax in duodenum tissue", "value": 136, "unit": "µg/mL"},
      {"measurement": "Cmax", "setting": "[2]; male, mouse, ileum, po, 100 mg/kg p.o., at 2 h, tissue density taken as 1 g/ml, read-out: Cmax in ileum tissue", "value": 331, "unit": "µg/mL"},
      {"measurement": "concentration at 24 h", "setting": "[2]; male, mouse, intestinal tissue, po, 100 mg/kg p.o. single dose, read-out: level in intestinal tissue at 24 h", "value": "> 0.8", "unit": "µg/mL"},
      {"measurement": "Cmax", "setting": "[2]; male, mouse, jejunum, po, 100 mg/kg p.o., at 2 h, tissue density taken as 1 g/ml, read-out: Cmax in jejunum tissue", "value": 92, "unit": "µg/mL"},
      {"measurement": "Cmax", "setting": "[2]; male, mouse, plasma, po, 100 mg/kg p.o. single dose, read-out: Cmax in plasma", "value": 0.071, "unit": "µg/mL"},
      {"measurement": "concentration at 10 h", "setting": "[2]; male, mouse, plasma, po, 100 mg/kg p.o. single dose, read-out: drug concentration in plasma after 10 h", "value": "< 0.01", "unit": "µg/mL"}
    ]}
  ]
}
